This is an account of results in US7932255B2, “2-aminocarbonyl substituted piperazine or diaza-cyclic compounds as apoptosis protein inhibitors (lap) modulators” (Novartis AG, priority 2006, dated 2011).

One assay deals with T1, XIAP (Homo sapiens, UniProt P98170).
T1 construct: GST
T1 sequence (P98170 248-358 limits assumed, species assumed): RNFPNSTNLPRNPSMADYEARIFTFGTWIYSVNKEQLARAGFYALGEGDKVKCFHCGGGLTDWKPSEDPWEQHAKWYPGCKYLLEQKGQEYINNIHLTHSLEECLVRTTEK
Put plainly: Disruption of the Smac peptide-(XIAP)BIR3 protein-protein interaction (Tables 2 and 3). The format is binding. The following applies: Series A compounds, Table 2; read-out: XIAP IC50. The method, then:
IC50 values for Series A compounds for XIAP. An assay capable of measuring disruption of the Smac peptide-(XIAP)BIR3 protein-protein interaction is established in the art as described in Example 2. In this assay IAP Inhibitor compounds compete with an immobilized Smac peptide for occupancy of the BIR3 binding pocket of XIAP. The rationale for this strategy results from the mutually exclusive nature of either Caspase 9 or Smac binding to the BIR3 pocket.
Assays are performed and IC50 values are calculated as follows: […]
IC50 values are calculated by logarithmic regression analysis of the percentage inhibition of each compound at 4 concentrations (usually 3- or 10-fold dilution series starting at 10 μM). In each experiment, the actual inhibition by reference compound is used for normalization of IC50 values to the basis of an average value of the reference inhibitor: Normalized IC50=measured IC50 average ref. IC50/measured ref. IC50
Activity determinations of compounds herein using the testing method described herein and as are well known in the art, are used with the following test compounds of formula (I). […] “Activity” as used herein is defined as having IC50 values for IAP target inhibition of less than 10 μM. Specifically, in the table:
IC50 values for Series B compounds are provided for XIAP. Assays are performed as described above using methods well known in the art.
Turning to `CN[C@@H](C)C(=O)N[C@H](C(=O)N1CCN(C(=O)N2CCCC2)C[C@H]1C(=O)NC1CCCc2ccccc21)C(C)C` (stereo partly drawn) [Compound 47, (S)-1-[(S)-3-Methyl-2-((S)-2-methylamino-propionylamino)-butyryl]-4-(pyrrolidine-1-carbonyl)-piperazine-2-carboxylic acid (1,2,3,4-tetrahydro-naphthalen-1-yl)-amide], the IC50 is under 10 µM.

On to `CN[C@@H](C)C(=O)N[C@H](C(=O)N1CCN(Cc2ccc(F)cc2)C[C@H]1C(=O)NC1CCCc2ccccc21)C(C)C` (stereo partly drawn) [Compound 10, (S)-4-(4-Fluoro-benzyl)-1-[(S)-3-methyl-2-((S)-2-methylamino-propionylamino)-butyryl]-piperazine-2-carboxylic acid (1,2,3,4-tetrahydro-naphthalen-1-yl)-amide], for which the IC50 is under 10 µM.

`CN[C@@H](C)C(=O)N[C@H](C(=O)N1CCN(S(=O)(=O)c2sccc2-c2ccno2)C[C@H]1C(=O)NC1CCCc2ccccc21)C(C)C` (stereo partly drawn) [Compound 42, (S)-4-(3-Isoxazol-5-yl-thiophene-2-sulfonyl)-1-[(S)-3-methyl-2-((S)-2-methylamino-propionylamino)-butyryl]-piperazine-2-carboxylic acid (1,2,3,4-tetrahydro-naphthalen-1-yl)-amide]: the IC50 was under 10 µM.

On to `CN[C@@H](C)C(=O)N[C@H](C(=O)N1CCN(Cc2ccc(OC(F)(F)F)cc2)C[C@H]1C(=O)NC1CCCc2ccccc21)C(C)C` (stereo partly drawn) [Compound 23, (S)-1-[(S)-3-Methyl-2-((S)-2-methylamino-propionylamino)-butyryl]-4-(4-trifluoromethoxy-benzyl)-piperazine-2-carboxylic acid (1,2,3,4-tetrahydro-naphthalen-1-yl)-amide], for which the half-maximal inhibitory concentration (IC50) is under 10 µM.

`CN[C@@H](C)C(=O)N[C@H](C(=O)N1CCN(CC(C)C)C[C@H]1C(=O)NC1CCCc2ccccc21)C(C)C` (stereo partly drawn) [Compound 8, (S)-4-Isobutyl-1-[(S)-3-methyl-2-((S)-2-methylamino-propionylamino)-butyryl]-piperazine-2-carboxylic acid (1,2,3,4-tetrahydro-naphthalen-1-yl)-amide]: the IC50 is under 10 µM.

Regarding `CN[C@@H](C)C(=O)N[C@H](C(=O)N1CCN(Cc2ccc(NC(C)=O)cc2)C[C@H]1C(=O)NC1CCCc2ccccc21)C(C)C` (stereo partly drawn) [Compound 16, (S)-4-(4-Acetylamino-benzyl)-1-[(S)-3-methyl-2-((S)-2-methylamino-propionylamino)-butyryl]-piperazine-2-carboxylic acid (1,2,3,4-tetrahydro-naphthalen-1-yl)-amide], the IC50 was under 10 µM.

As for `CN[C@@H](C)C(=O)N[C@H](C(=O)N1CCN(CC2CC2)C[C@H]1C(=O)NC1CCCc2ccccc21)C(C)C` (stereo partly drawn) [Compound 36, (S)-4-Cyclopropylmethyl-1-[(S)-3-methyl-2-((S)-2-methylamino-propionylamino)-butyryl]-piperazine-2-carboxylic acid (1,2,3,4-tetrahydro-naphthalen-1-yl)-amide], the IC50 is under 10 µM.

`CN[C@@H](C)C(=O)N[C@H](C(=O)N1CCN(Cc2ccccc2)C[C@H]1C(=O)NC1CCCc2ccccc21)C(C)C` (stereo partly drawn) [Compound 53, (S)-4-Benzyl-1-[(S)-3-methyl-2-((S)-2-methylamino-propionylamino)-butyryl]-piperazine-2-carboxylic acid (1,2,3,4-tetrahydro-naphthalen-1-yl)-amide]: the 50% inhibitory concentration (IC50) is under 10 µM.

`CN[C@@H](C)C(=O)N[C@H](C(=O)N1CCN(CC2CCCC2)C[C@H]1C(=O)NC1CCCc2ccccc21)C(C)C` (stereo partly drawn) [Compound 7, (S)-4-Cyclopentylmethyl-1-[(S)-3-methyl-2-((S)-2-methylamino-propionylamino)-butyryl]-piperazine-2-carboxylic acid (1,2,3,4-tetrahydro-naphthalen-1-yl)-amide]: the IC50 was under 10 µM.

For `CN[C@@H](C)C(=O)N[C@H](C(=O)N1CCN(C(=O)NC(C)C)C[C@H]1C(=O)NC1CCCc2ccccc21)C(C)C` (stereo partly drawn) [Compound 48, (S)-4-[(S)-3-Methyl-2-((S)-2-methylamino-propionylamino)-butyryl]-piperazine-1,3-dicarboxylic acid 1-isopropylamide 3-[(1,2,3,4-tetrahydro-naphthalen-1-yl)-amide]], the IC50 was under 10 µM.

For the molecule `CCCCN1CCN(C(=O)[C@@H](NC(=O)[C@H](C)NC)C(C)C)[C@H](C(=O)NC2CCCc3ccccc32)C1` (stereo partly drawn) [Compound 33, (S)-4-Butyl-1-[(S)-3-methyl-2-((S)-2-methylamino-propionylamino)-butyryl]-piperazine-2-carboxylic acid (1,2,3,4-tetrahydro-naphthalen-1-yl)-amide], the IC50 was under 10 µM.

Take `CC(C)[C@H](NC(=O)[C@H](C)N(C)C(=O)OC(C)(C)C)C(=O)N1CCN(Cc2ccccc2)C[C@H]1C(=O)N[C@@H]1CCCc2ccccc21` [Compound 57, [(S)-1-((S)-1-{(S)-4-Benzyl-2-[(R)-(1,2,3,4-tetrahydro-naphthalen-1-yl)carbamoyl]-piperazine-1-carbonyl}-2-methyl-propylcarbamoyl)-ethyl]-methyl-carbamic acid tert-butyl ester]: the IC50 was over 10 µM.

The assay is the same for the next values; noted with them: Series B compounds, Table 3; read-out: XIXP IC50.
Turning to `CN[C@@H](C)C(=O)N[C@H](C(=O)N1CCN(Cc2ccccc2)C[C@H]1C(=O)NCCc1cccnc1)C(C)C` [Compound 66, (S)-4-Benzyl-1-[(S)-3-methyl-2-((S)-2-methylamino-propionylamino)-butyryl]-piperazine-2-carboxylic acid (2-pyridin-3-yl-ethyl)-amide], the half-inhibitory concentration (IC50) was over 10 µM.

With `CN[C@@H](C)C(=O)N[C@H](C(=O)N1CCN(Cc2ccccc2)C[C@H]1C(=O)NCC1CCCCCC1)C(C)C` [Compound 77, (S)-4-Benzyl-1-[(S)-3-methyl-2-((S)-2-methylamino-propionylamino)-butyryl]-piperazine-2-carboxylic acid cycloheptylmethyl-amide], the IC50 was over 10 µM.

Regarding `CN[C@@H](C)C(=O)N[C@H](C(=O)N1CCN(Cc2ccccc2)C[C@H]1C(=O)NCCc1cccc(F)c1)C(C)C` [Compound 63, (S)-4-Benzyl-1-[(S)-3-methyl-2-((S)-2-methylamino-propionylamino)-butyryl]-piperazine-2-carboxylic acid [2-(3-fluoro-phenyl)-ethyl]-amide], the IC50 is under 10 µM.

On to `CN[C@@H](C)C(=O)N[C@H](C(=O)N1CCN(Cc2ccccc2)C[C@H]1C(=O)NC(Cc1ccccc1)Cc1ccccc1)C(C)C` [Compound 80, (S)-4-Benzyl-1-[(S)-3-methyl-2-((S)-2-methylamino-propionylamino)-butyryl]-piperazine-2-carboxylic acid (1-benzyl-2-phenyl-ethyl)-amide], for which the IC50 is under 10 µM.

Regarding `CN[C@@H](C)C(=O)N[C@H](C(=O)N1CCN(Cc2ccccc2)C[C@H]1C(=O)NCc1ccccc1)C(C)C` [Compound 65, (S)-4-Benzyl-1-[(S)-3-methyl-2-((S)-2-methylamino-propionylamino)-butyryl]-piperazine-2-carboxylic acid benzylamide], the IC50 was under 10 µM.

With `CN[C@@H](C)C(=O)N[C@H](C(=O)N1CCN(Cc2ccccc2)C[C@H]1C(=O)NC(c1ccccc1)c1ccccc1)C(C)C` [Compound 64, (S)-4-Benzyl-1-[(S)-3-methyl-2-((S)-2-methylamino-propionylamino)-butyryl]-piperazine-2-carboxylic acid benzhydryl-amide], the half-maximal inhibitory concentration (IC50) is under 10 µM.
